Measurements as given in PMC9841593 (ACS Medicinal Chemistry Letters, 2022).

The compounds below were run against influenza PAN endonuclease (Influenza A virus, UniProt C3W5S0, DEL52-64/INS51G).
Assay type: biochemical, influenza A/California/04/2009(H1N1)
`CONC(=O)c1[nH]c(Br)cc(=O)c1O` [Compound 5] was tested, and the “inhibition of PAN (in words)” value was “moderate inhibition”.
`O=c1[nH]c(-c2[nH]c(Br)cc(=O)c2O)no1` [Compound 7] was tested, and the “inhibition of PAN (in words)” value was “most potent IC50 value of the evaluated compounds”.
With `Cc1nc(-c2[nH]c(Br)cc(=O)c2O)no1` [Compound 8] the “inhibition of PAN (in words)” value was “good inhibition”.
In the case of `O=c1cc(Br)[nH]c(-c2nnn[nH]2)c1O` [Compound 4], the “inhibition of PAN (in words)” value is reported as “activity comparable to that of the parent structure”.
In the case of `O=c1cc(Br)[nH]c(C2=NCCO2)c1O` [Compound 11], the “inhibition of PAN (in words)” value is reported as “markedly poorer inhibition than the parent MBI”.
With `NC(=O)c1[nH]c(Br)cc(=O)c1O` [Compound 3] the “inhibition of PAN (in words)” value was “little difference in activity when compared with compounds 1 or 2”.
`N#Cc1[nH]c(Br)cc(=O)c1O` [Compound 9] was tested, and the “inhibition of PAN (in words)” value was “relatively poor inhibition”.
For `O=c1cc(Br)[nH]c(C2=NCCN2)c1O` [Compound 10], the “inhibition of PAN (in words)” value was “markedly poorer inhibition than the parent MBI”.
